Source: ChEMBL document CHEMBL1201862, “PubChem BioAssay data set” (2004)
Calls of active or inactive are those of the source. Rule as the data show it: actives have a measured IC50 and inactives only a lower limit.

Molecular target: Envelope glycoprotein gp160 (Human immunodeficiency virus 1, UniProt Q6QLK5)
Experiment: cell-free HIV fusion peptide-binding blockers – biochemical, uHTS, fluorescence dequenching, […] (AID 1986)

Sequence of Envelope glycoprotein gp160 (Q6QLK5 whole entry, the tested form may be a part): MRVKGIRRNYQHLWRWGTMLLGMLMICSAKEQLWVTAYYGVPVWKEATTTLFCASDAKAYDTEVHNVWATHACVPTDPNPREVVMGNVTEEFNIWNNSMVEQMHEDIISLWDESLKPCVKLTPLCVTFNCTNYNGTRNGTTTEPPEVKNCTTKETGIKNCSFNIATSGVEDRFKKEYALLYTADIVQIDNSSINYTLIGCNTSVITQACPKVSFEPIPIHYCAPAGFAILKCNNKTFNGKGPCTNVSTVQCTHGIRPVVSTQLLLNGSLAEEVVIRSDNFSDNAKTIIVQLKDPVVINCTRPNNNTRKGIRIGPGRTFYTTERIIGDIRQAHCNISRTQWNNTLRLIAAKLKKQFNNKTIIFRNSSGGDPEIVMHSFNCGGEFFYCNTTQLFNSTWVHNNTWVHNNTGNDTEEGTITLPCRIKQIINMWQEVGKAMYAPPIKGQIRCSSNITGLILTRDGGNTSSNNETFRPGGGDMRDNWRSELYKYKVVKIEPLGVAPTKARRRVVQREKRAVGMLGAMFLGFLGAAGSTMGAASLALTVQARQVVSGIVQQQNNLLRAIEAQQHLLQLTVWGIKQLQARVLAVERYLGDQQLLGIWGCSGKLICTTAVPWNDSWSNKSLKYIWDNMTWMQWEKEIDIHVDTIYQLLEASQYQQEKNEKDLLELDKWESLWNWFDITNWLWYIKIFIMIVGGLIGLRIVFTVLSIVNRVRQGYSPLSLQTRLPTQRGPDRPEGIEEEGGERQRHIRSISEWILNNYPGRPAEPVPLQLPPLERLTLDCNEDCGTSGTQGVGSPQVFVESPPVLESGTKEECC

Row | Structure (SMILES) | IC50
1 | O=C(NN1C(=O)/C(=C/c2ccc(O)c([N+](=O)[O-])c2)SC1=S)c1ccccc1Cl | 28.2 µM (active)
2 | CC(C)(C)CC(C)(C)c1ccc(OCC(=O)N/N=C/c2ccc(S(=O)(=O)O)o2)cc1 | 27.8 µM (active)
